According to patent publication US20120214743A1, “ITCH SUPPRESSANT” (University of Occupational and Environmental Health, Japan, priority 2009, published 2012):
Ends that are not written are not given here. * marks the point of attachment. SO3H = O=S(=O)(O)*

Legend:
[1] = test system: FSMCs (mouse fetal skin derived mast cells); assay: β-Hexosaminidase assay, compound 48/80-induced degranulation of FSMCs; assay type: cell-based; conditions: CCK8S at 10^−8 or 10^−7 M, 15 min at 37° C., FIG. 5B
Procedure: FSMCs were washed with Tyrode's buffer (Sigma), and resuspended at 2×10^4 cells per well into a 96 well plate. FSMCs were treated with compound 48/80 with or without CCK8S for 15 min at 37° C. The plate was centrifuged for 5 min and supernatant was placed into another 96 well and cell pellet were resuspended with 0.5% Triton X-100 (Sigma) in Tyrode's buffer. Supernatant and cell lysate (50 μl) was incubated with 100 μl 4 mM p-nitrophenyl-N-acetyl-β-D-galactosaminide (Sigma), dissolved in citrate buffer, pH4.5, at 37 ° C. for 90 min. The reaction is stopped with 200 μl 0.2M Glycine (MP Biomedicals, Solon, Ohio), pH10.7. The plate was read at 405 nm using a reference filter 595 nm by Microplate Reader (Bio-Rad, Hercules, Calif.). β-hexosaminidase release was determined as the ratio between activity in the supernatant and cell lysate multiplied by 100.
The addition of compound 48/80 induces degranulation in FSMCs.

[2] = test system: ICR mice; assay: Contact hypersensitivity (CHS) mouse model to DNFB, ear swelling; assay type: in vivo; conditions: 0.5 nmol/ear painted immediately before DNFB challenge, measured 24 hours after challenge; FIG. 5C
Procedure: For induction of CHS to 2,4-dinitrofluorobenzene (DNFB; Nakalai Tesque, Kyoto, Japan), ICR mice were sensitized on two consecutive days, days 0 and 1, on the clipped abdomen with 25 μL of 0.5% of DNFB diluted in acetone/olive oil (3:1). Five days later, animals were challenged on both sides of each ear by painting a nonirritant concentration of 0.2% DNFB. Before challenge, CCK8S (0.5 nmol/ear) diluted in acetone/olive oil (3:1) or only acetone/olive oil (control) was painted on each ear. The ear thickness of mice was measured using dial thickness gauge before and 24 hours after challenge. Ear swelling was calculated from the difference in ear thickness between before and after challenge.
In CHS model, mice were sensitized with DNFB (2,4-dinitrofluorobenzene), a haptene, and the contact hypersensitivity raised by DNFB at day 5 lead to ear swelling.

[3] = test system: FSMCs; assay: Confocal imaging of intracellular Ca in FSMCs; assay type: cell-based, mouse
Procedure: Confocal imaging of cells loaded with fluorescent dyes was undertaken using a Zeiss LSM5 pascal (Carl Zeiss, Jena, Germany). Fluo-4-AM (Invitrogen) (1 μM) was loaded at 37° C. for 20 min and washed twice and sit at least for 40 min. Mast cells, were stained for CD117 (c-kit) with Alexa Fluor 700-conjugated anti-mouse CD117 antibody. The LSM5 multi-track configuration was used for simultaneous measurement of intracellular Ca concentration (Ca) (excitation, 488 nm; emission, long-pass 505 nm filter) and the expression of CD117 (excitation, 633 nm; emission, long-pass 650 nm filter). Images were recorded at room temperature with 512×512 pixels. The application of stimulation, such SP and CCK, were applied directly in the bath as a small drop ([…]). Image data were analyzed off-line using the Zeiss LSM510 analyzing software (LSM Image Examiner).
Thus, it is likely that CCK8S affects signaling in mast cells.

[4] = test system: ICR mice; assay: SP-induced scratch behavior in ICR mice; assay type: in vivo, mouse
Procedure: Since it is considered that external administration of CCK affects keratinocytes, at first, CCK2R agonist was administered transdermally (applying the solution prepared using acetone-olive (3:1)) to itch-related behavior model (ICR mice administered intradermally with SP (100 nmol)).
The hair was clipped over the rostral part of the murine back one or two days prior to experiment. Before behavioral recording, each mouse (4 animals per observation) was put into an acrylic cage (18×23×11 cm) for at least 1 hr for acclamation. An intradermal injection of SP (100 nmol in normal saline per site) induces scratching of the skin around the injected site by the hind paws in mice. CCKs were topically applied in the two ways, percutaenous application and intradermal injection. For percutaneous application, the shaved back skin was stripped with Scotch tape (3M) 6 times the day before the experiment. The mice were painted on the clipped back with 20 μL CCK (0.5 nmol/site) in acetone/olive (3:1) 3-4 minutes before SP injection (100 nmol/site). […] Immediately after treatment, the animals were put back into the same cage and their behavior was videotaped using a digital video camera for 40 minutes. The frequency of scratch toward the injected site by hind paws was counted for the first 20 minutes with the video.

[5] = test system: NHEKs; assay: IL-8 production in NHEK (cytometric bead array); assay type: cell-based, human; conditions: CCK8S 10^−9, 10^−8 or 10^−7 M, Ca 0.15 mM or 0.6 mM, FIG. 5A
Procedure: IL^-8 concentration in the culture supernatants was quantified with Cytometric Bead Array (CBA) Flex Set System purchased from BD using FACSCanto (BD).
NHEKs were stimulated with various concentrations of CCK8S (CCK8S concentration of 10^−9, 10^−8, or 10^−7 M, Ca concentration of 0.15 mM or 0.6 mM).

Substance: Asp-Tyr(SO3H)-Met-Gly-Trp-Met-Asp-Phe-NH2 (DY(SO3H)MGWMDF-NH2) [CCK8S, natural type cholecystokinin, tyrosine at seventh position from C-terminal sulfated]
- degranulation (β-hexosaminidase release) induced by compound 48/80 [1]: suppression of degranulation was observed
- ear swelling [2]: suppressed
- percentage of responding FSMCs ([3]; Ca response after CCK8S, FIG. 6 bottom): 45%
- change of intracellular Ca concentration ([3]; FSMCs, Fluo-4-AM, FIG. 6 top): transient increase
- time to transient increase in Ca after the administration ([3]; FSMCs, FIG. 6 top): ≤ 1 min
- scratch behavior (frequency of scratch, first 20 minutes) ([4]; subcutaneous administration, 0.5 nmol/site in saline simultaneously with SP 100 nmol, FIG. 3B): depressed
- scratch behavior (frequency of scratch, first 20 minutes) ([4]; transdermal, 0.5 nmol/site in acetone/olive (3:1), tape-stripped skin, 3-4 minutes before SP 100 nmol/site intradermal, FIG. 3): significant reduction
- production of IL-8 [5]: decreased in accordance with the concentration
